In patent US20240400722A1, “Chemically Inducible Heterodimerizing System and A Method For Generation Thereof” (Miltenyi Biotec B.V. & Co. KG, priority 2023, published 2024):
“Also recorded” adds a separate entry of the source.

Tests used:
acVHH-V104D/dfM1-2 = assay: NanoBiT assay in Jurkat T cells, small molecule titration of acVHH-V104D/dfM1-2; assay type: cell-based, llama
Source text: (§1) The ac VHH variants were N-terminally fused to an extracellular globular domain used to assess expression, as well as a transmembrane domain, and C-terminally fused to a subunit of the split NanoLuc (NanoBiT® system), Promega. Thus, the resulting fusion protein consisted of an extracellular globular domain, followed by a transmembrane domain and intracellular ac VHH variants followed by a subunit of split NanoLuc luciferase.
(§2) The different chains built were as follows: the first polypeptide chain comprised truncated EGFR extracellular and transmembrane domain, followed by a 2×G4S linker and cither ac VHH-V104D or ac VHH-WT, followed by a linker (SEQ ID NO:31) and 11S NanoBiT® “Large BiT”, whereas the second polypeptide chain comprised truncated HER2 extracellular and transmembrane domain, followed by a linker (SEQ ID NO:32) and either ac VHH-V104D or ac VHH-WT or ac VHH-M1 or acVHH-M2 or dfM1-1 or dfM1-2, followed by a linker (SEQ ID NO:33) and 114 NanoBiT® “Small BiT”. […] The principle of the assay is as follows: upon binding of (i.e. dimerization) of the respective ac VHH variants, the fused NanoLuc luciferase subunits are brought into close proximity (the two subunits being fused to the two different polypeptide chains, respectively), thus resulting in a functional luciferase enzyme, whose activity can be measured. […]

[1] = system: CD19-positive Jurkat target cells; assay: Lysis of target cells by split CAR-expressing primary human T cells with or without dimerizer; assay type: cell-based; settings: 50 μM caffeine or medium only, E:T 2:1, 4 h; split CARs with dfM1-1 or dfM1-2 and acVHH V104D
Source text: 4 different architectures of split CARs consisting of two chains were investigated per acVHH variant where both the first and second chain of the split CAR is either monomeric or dimeric. A dimeric first CAR chain entails an FMC63 scFv followed by a linker followed by a Flag tag followed by a CD8a hinge and transmembrane domain followed by a 4-1BB co-stimulatory domain followed by a linker followed by acVHH dfM1-1 or dfM1-2 (SEQ ID NO:34 where ac VHH is dfM1-1). The only difference for a monomeric first CAR chain is the mutation of the two cysteine residues in the CD8a hinge to serine residues (SEQ ID NO:35). A dimeric second chain entails a DAP10 extracellular domain followed by a CD8 transmembrane domain followed by 2 amino acids followed by a 4-1BB co-stimulatory domain followed by a linker followed by ac VHH V104D followed by a linker followed by CD3z signaling domain followed by a linker followed by m Cherry (SEQ ID NO:36). […]
After electroporation, the cells were incubated for 6 h at 37° C. […] The cells were co-cultured for 4 h at 37° C., then 150 μg/mL luciferin (Xenolight D-luciferin, Perkin Elmer) was added to each well and luminescence was measured after 20 min with an ENSPIRE Multimode plate reader (Perkin Elmer). Specific lysis was calculated according to the formula:

acVHH-V104D/dfM1-1 = assay: NanoBiT assay in Jurkat T cells, small molecule titration of acVHH-V104D/dfM1-1; assay type: cell-based, llama
Source text: as §1, §2

acVHH-V104D = settings: read-out: binding affinity (KD) of caffeine to acVHH-V104D; SPR multi-cycle kinetics, steady state analysis; acVHH-V104D immobilised on CM5 chip
Experimental: A stock of 30 μg/mL protein ac VHH-V104D was prepared in 10 mM NaAc buffer of pH 5 and covalently immobilised on a CM5 chip (GE Healthcare) with a 300 sec contact time and 10 μL/min flow rate to reach 4 600 response units (RU). […] KD values were obtained by steady state analysis.

acVHH-V104D/acVHH-M1 = settings: Jurkat T cells; compared with homodimeric switch acVHH-WT
Source text: as §1, §2

[2] = cited from earlier work
Raji target cells = assay: IFN-γ and IL-2 secretion (ELISA) of transduced split CAR T cells co-cultured with Raji target cells; assay type: cell-based, human; settings: medium, 0.1 μM or 100 μM caffeine, overnight, E:T 2:1
Source text: The nucleotide sequence encoding the monomeric CAR chain 1 (SEQ ID NO:34) containing dfM1-1 was fused to the nucleotide sequence encoding the dimeric CAR chain 2 (SEQ ID NO:36) or to the nucleotide sequence encoding monomeric CAR chain 2 (SEQ ID NO:37) via a furin cleavage site and 2A sequence (SEQ ID NO:41) and cloned into a third generation lentiviral expression vector with puromycin resistence gene (pCDH, System Biosciences). This plasmid, along with second-generation viral packaging plasmids (psPAX2 and pMD2.G, Addgene plasmids #12260 and #12259), was co-transfected in Lenti-X 293T cells (Takara) using the PureFection Transfection Reagent (System Biosciences) according to instructions provided by the manufacturer. Supernatants were collected on day 2 and 3 following transfection and concentrated 100-fold using Lenti-X Concentrator (Takara) according to the manufacturer's instructions. Viral suspensions were resuspended in RPMI-1640 medium supplemented with 10% FCS and 1% penicillin-streptomycin and frozen at −80° C. […]
Supernatants of triplicate wells were pooled and stored at −80° C. IFN-γ and IL-2 secretion was quantified by ELISA using kits from Biolegend (ELISA MAX Deluxe Set Human IFN-γ and ELISA MAX Deluxe Set Human IL-2, respectively), according to the manufacturer's instructions.

acVHH-V104D+acVHH-M1 = assay: Yeast display, small molecule-triggered heterodimerization acVHH-V104D + acVHH-M1; assay type: binding, llama; settings: 500 nM soluble acVHH-V104D ± 10 μM compound
Experimental: (§3) Expression of the acVHH variants on yeast was induced by culturing the cells in SG-CAA medium (20 g/L galactose, 2 g/L glucose, 6.7 g/L yeast nitrogen base, 5 g/L bacto casamino acids, 10.2 g/L Na2HPO4*7 H2O, 8.56 g/L NaH2PO4*H2O) overnight at 20° C. and 180 rpm. Detection of full-length proteins on the surface of the cells was carried out by staining the cells with anti-c-myc AlexaFluor 488 (9E10, Thermo Fisher). […] After a washing step with PBSA, they were stained with an anti-HA-Alexa Fluor 488 (BioLegend) to gate for displaying yeast cells and the geometric mean fluorescence intensity (gMFI) of binding to acVHH-V104D, detected by co-staining with a Penta-His-Alexa Fluor 647 (Qiagen) (recognizing the His-tag on acVHH-V104D) was measured.
(§4) 56 clones of the library were sequenced as explained in Example 2. […] Their binding and affinity to soluble acVHH-V104D as well as full length display was assessed with yeast surface display as described in Example 2.
(§5) EC50 values were calculated like the KD values by fitting the gMFI binding values to a 1:1 binding interaction model (Zajc et al., Methods Mol Biology. 2022; 2491:155-173).

acVHH-V104D+acVHH-M2 = assay type: binding, llama; settings: 500 nM soluble acVHH-V104D ± 10 μM compound
Experimental: as §3

V104D+dfM1-2 = settings: 500 nM soluble acVHH-V104D ± 10 μM compound
Experimental: as §3, §4, §5

V104D+dfM1-1 = settings: 500 nM soluble acVHH-V104D ± 10 μM compound
Experimental: as §3, §4, §5

[3] = compared with homodimeric switch acVHH-WT
[4] = increasing concentrations of theobromine

## Cn1c(=O)c2c(ncn2C)n(C)c1=O [caffeine]
acVHH-V104D/dfM1-2; [3]
  EC50 for caffeine, V104D+dfM1-2, NanoBiT: increased
[1]
  lysis of CD19-positive Jurkat T cells by split CAR T cells: caffeine-dependent cytotoxic activity
acVHH-V104D/dfM1-1; [3]
  EC50 for caffeine, V104D+dfM1-1, NanoBiT: increased
acVHH-V104D
  Kd: 72.4 mM
acVHH-V104D/acVHH-M1
  EC50 for caffeine, V104D+M1, NanoBiT: increased
[2]; absence of coffee, tea and chocolate consumption for 21 days, detection limit of the method
  plasma levels of caffeine: < 500 nM
[2]; after drinking one cup of coffee
  maximum plasma caffeine levels: ~10 µM
[2]; nonhabitual coffee drinkers after coffee abstinence for at least 16 hours
  caffeine plasma levels: 1.9 ± 1.6 µmol/L
Raji target cells
  IFN-γ and IL-2 secretion of split CAR T cells: strong dependence

## Cn1c(=O)[nH]c2ncn(C)c2c1=O [paraxanthine]
acVHH-V104D+acVHH-M1
  triggering of heterodimerization acVHH-V104D/acVHH-M1: can trigger
acVHH-V104D+acVHH-M2
  triggering of heterodimerization acVHH-V104D/acVHH-M2: can trigger

## Cn1cnc2c1c(=O)[nH]c(=O)n2C [theobromine]
acVHH-V104D/dfM1-2; [4]
  triggering of heterodimeric switch acVHH-V104D/dfM1-2: can trigger
acVHH-V104D+acVHH-M1
  triggering of heterodimerization acVHH-V104D/acVHH-M1: can trigger
acVHH-V104D/dfM1-1; [4]
  triggering of heterodimeric switch acVHH-V104D/dfM1-1: can trigger
acVHH-V104D+acVHH-M2
  triggering of heterodimerization acVHH-V104D/acVHH-M2: can trigger

## Cn1c(=O)c2[nH]cnc2n(C)c1=O [theophylline]
acVHH-V104D+acVHH-M1
  triggering of heterodimerization acVHH-V104D/acVHH-M1: can trigger; also recorded: can be triggered
acVHH-V104D+acVHH-M2
  triggering of heterodimerization acVHH-V104D/acVHH-M2: can trigger
V104D+dfM1-2
  triggering of heterodimerization acVHH-V104D/dfM1-2: can be triggered
V104D+dfM1-1
  triggering of heterodimerization acVHH-V104D/dfM1-1: can be triggered
